Test results as given in patent US9884863B2, “STAT3 inhibitor” (Board of Regents, The University of Texas System, priority 2013, dated 2018).
Like-named read-outs stand apart in the source and are kept apart here.

Key:
[1] = test system: AsPC1; test: MTS cell proliferation assay, AsPC1; type: cell-based, human
Protocol: (§1) Cancer cells (breast cancer cell lines MCF-7, MDA-MB-361, SKBR3 and MDA-MB-231, pancreatic cancer cell lines AsPC-1. BxPC3 and Panc-1) were seeded in 96-well plates at a density of 1000-2000 cells/well and treated with DMSO, 0.01, 0.1, 1, 5, 10, and […] of STAT3 individual inhibitors for 72 hrs. Proliferation was measured by treating cells with the 3-(4,5-dimethylthiazol-2-yl)-5-(3-carboxymethoxyphenyl)-2-(4-sulfophenyl)-2H-tetrazolium) (MTS) in a CellTiter 96t AQueous Non-Radioactive Cell Proliferation Assay kit from Promega, Madison, Wis., USA). Absorbance of all wells was determined by measuring OD at 550 nm after 1 hr incubation at 37° C. on a 96-well iMark™ Microplate Absorbance Reader (BioRad, Hercules, Calif.). Each individual compound was tested in quadruplicate wells for each concentration, and the results were reported as mean absorption±s.e.
(§2) In Vitro Determination of Effects of Synthesized Compounds on Cancer Cell Proliferation. Cancer cells (breast cancer cell lines MCF-7 and MDA-MB-231, pancreatic cancer cell lines AsPC-1 and Panc-1) were seeded in 96-well plates at a density of 2×10^3 cells/well and treated with DMSO, 0.01, 0.1, 1, 5, 10, and 100 μM of individual STAT3 inhibitors for 72 h. Proliferation was measured by treating cells with the 3-(4,5-dimethylthiazol-2-yl)-5-(3-carboxymethoxyphenyl)-2-(4-sulfophenyl)-2H-tetrazolium) (MTS) in a CellTiter 96t Aqueous Non-Radioactive Cell Proliferation Assay kit (Promega, Madison, Wis., USA). Absorbance of all wells was determined by measuring OD at 550 nm after 1 h incubation at 37° C. on a 96-well iMark™ Microplate Absorbance Reader (BioRad, Hercules, Calif.). Each individual compound was tested in quadruplicate wells for each concentration.

[2] = test system: Panc-1; test: MTS cell proliferation assay, Panc-1; type: cell-based, human
Protocol: as §1, §2

[3] = test system: MDA-MB-361; test: MTS cell proliferation assay, MDA-MB-361; type: cell-based; settings: Homo sapiens, ER-positive breast cancer, 72 hrs, >10 = no effect, read-out: IC50 MDA-MB-361 (Table 1)
Protocol: as §1

[4] = test system: MDA-MB-231; test: MTS cell proliferation assay, MDA-MB-231; type: cell-based, human
Outline: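 Cells are exposed to DMSO or STAT3 inhibitors at 0.01-100 μM for 72 h, or at 1, 5 and 10 μM. Proliferation is read by MTS absorbance at 550 or 560 nm after 1 h at 37 °C. Each concentration is run in quadruplicate wells.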

[5] = test system: BxPc-3H; test: MTS cell proliferation assay, BxPc-3H; type: cell-based; settings: Homo sapiens; pancreatic cancer, 72 hrs; >10 = no effect; read-out: IC50 BxPc-3H (Table 1)
Protocol: as §1

[6] = test system: SKBR3; test: MTS cell proliferation assay, SKBR3; type: cell-based; settings: Homo sapiens, SK-BR-3; ER-negative breast cancer, 72 hrs; >10 = no effect; read-out: IC50 SKBR3 (Table 1)
Protocol: as §1

[7] = test system: MCF-7; test: MTS cell proliferation assay, MCF-7; type: cell-based, human
Outline: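 MCF-7 human breast cancer cells were exposed to test compounds at a range of concentrations, then proliferation was measured with the MTS reagent from Promega's CellTiter 96 AQueous Non-Radioactive Cell Proliferation Assay kit. After 1 hr at 37° C., OD at 550 nm was read on a 96-well iMark Microplate Absorbance Reader, with quadruplicate wells per concentration.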

[8] = test system: MDA-MB-231 xenograft tumors; test: MDA-MB-231 xenograft tumor growth in nude mice; type: in vivo; settings: i.p., 2.5, 7.5 and 12.5 mg/kg
[9] = test system: MCF-7, MDA-MB-231, AsPC1 and Panc-1; test: MTS proliferation assays, breast and pancreatic cancer cell line panel; type: cell-based, human; settings: Example 4 numbering
Protocol: as §2

[10] = Homo sapiens, ASPC1, pancreatic cancer, 72 hrs, >10 = no effect, read-out: IC50 AsPC1 (Table 1)
[11] = Homo sapiens, PANC-1, pancreatic cancer, 72 hrs, >10 = no effect, read-out: IC50 Panc-1 (Table 1)
[12] = Homo sapiens, MDA-MB-231, ER-negative breast cancer, 72 hrs, >10 = no effect, read-out: IC50 MDA-MB-231 (Table 1)
[13] = Homo sapiens, MCF7, 72 h; read-out: IC50 MCF-7 (Table 1)
[14] = MCF-7, 48 hr, μM concentrations
[15] = Homo sapiens, ASPC1, 72 h, read-out: IC50 AsPC1 (Table 1)
[16] = Homo sapiens, PANC-1, 72 h, read-out: IC50 Panc-1 (Table 1)
[17] = Homo sapiens, MDA-MB-231, 72 h, read-out: IC50 MDA-MB-231 (Table 1)
[18] = Homo sapiens, MCF7, 72 h, read-out: IC50 MCF-7 (Table 1)
[19] = Homo sapiens, MDA-MB-231, Example 4 numbering, 72 h, >10 = no effect, read-out: IC50 MDA-MB-231 (Table 5)
[20] = Homo sapiens, MCF7; Example 4 numbering, 72 h; >10 = no effect; read-out: IC50 MCF-7 (Table 5)

| IC50 [1, 10] | IC50 [2, 11] | IC50 [3] | IC50 [4, 12] | IC50 [5] | IC50 [6] | IC50 [7, 13] | Molecule | inhibition on breast cancer cell proliferation (FIG. 1) [7, 14] | further results |
| --- | --- | --- | --- | --- | --- | --- | --- | --- | --- |
| 1.9 µM | 1.08 µM | 2.37 µM | 1.64 µM | 1.07 µM |  | 0.91 µM | NCCOc1ccc(Cl)cc1C(=O)Nc1ccc([N+](=O)[O-])cc1Cl [HJC-1-52, 2-(2-Aminoethoxy)-5-chloro-N-(2-chloro-4-nitrophenyl)benzamide] | significant inhibition | growth of xenograft tumors (FIG. 3) [8]: significantly suppresses tumor growth |
| > 10 µM | 0.84 µM | 43 µM | > 10 µM | > 10 µM | > 10 µM | > 10 µM | CS(=O)(=O)Nc1ccc(NC(=O)c2cc(Cl)ccc2O)c(Cl)c1 [HJC-1-31, 5-Chloro-N-(2-chloro-4-methanesulfonylamino-phenyl)-2-hydroxybenzamide] |  |  |
| 11.6 µM | 27.9 µM | 9.23 µM | > 10 µM | 13.2 µM | 9.14 µM | 11.7 µM | CC(=O)Nc1ccc(NC(=O)c2cc(Cl)ccc2OC(C)=O)c(Cl)c1 [HJC-1-37, Acetic acid 2-(4-acetylamino-2-chloro-phenylcarbamoyl)-4-chlorophenyl ester] |  |  |
| 1.92 µM | 2.34 µM | 2.37 µM | 1.64 µM | 1.16 µM | 0.72 µM | 0.91 µM | O=C(Nc1ccc2c(c1)S(=O)(=O)C=C2)c1cc(Cl)ccc1O [HJC-1-49, 5-Chloro-N-(1,1-dioxo-1H-1λ^6-benzo[b]thiophen-6-yl)-2-hydroxybenzamide] | significant inhibition |  |
| 0.12 µM | 0.31 µM | 0.23 µM | 0.45 µM | 0.27 µM | 0.2 µM | 0.65 µM | O=C(Nc1ccc2c(c1)S(=O)(=O)C=C2)c1cc(-c2ccccc2)nc(-c2ccccc2)c1 [HJC-1-36, N-(1,1-Dioxo-1H-1λ^6-benzo[b]thiophen-6-yl)-2,6-diphenyl-isonicotinamide] | significant inhibition |  |

Further lines, the molecule ahead of its results:

| Molecule | IC50 [1, 10] | IC50 [2, 11] | IC50 [3] | IC50 [4, 12] | IC50 [5] | IC50 [6] | IC50 [7, 13] | inhibition on breast cancer cell proliferation (FIG. 1) [7, 14] | further results |
| --- | --- | --- | --- | --- | --- | --- | --- | --- | --- |
| O=C(Nc1nnc(-c2ccco2)o1)c1cc(Cl)ccc1O [HJC-1-51, 5-Chloro-N-(5-furan-2-yl-[1,3,4]oxadiazol-2-yl)-2-hydroxybenzamide] | > 10 µM | > 10 µM | > 10 µM | > 10 µM | 200 µM | 42.4 µM | > 10 µM |  |  |
| CC(=O)Nc1ccc(NC(=O)c2cc(Cl)ccc2O)c(Cl)c1 [HJC-1-40, N-(4-Acetylamino-2-chlorophenyl)-5-chloro-2-hydroxybenzamide] | 37.6 µM | > 10 µM | 22.8 µM | 66.3 µM | > 10 µM | 11.2 µM | > 10 µM |  |  |
| O=C(Nc1ccc([N+](=O)[O-])cc1Cl)c1cc(Cl)ccc1OCCN1CCOCC1 [HJC-1-14, 5-Chloro-N-(2-chloro-4-nitro-phenyl)-2-(2-morpholin-4-yl-ethoxy)benzamide] |  |  | 12.6 µM |  | > 10 µM | 5.1 µM |  |  | IC50 [1, 15]: 73.2 µM; IC50 [2, 16]: > 10 µM; IC50 [4, 17]: 17.9 µM; IC50 [7, 18]: 9.87 µM |
| O=C(Nc1ccc2c(c1)S(=O)(=O)C=C2)c1ccnc(-c2ccccc2)c1 [Compound 22, N-(1,1-Dioxo-1H-1λ^6-benzo[b]thiophen-6-yl)-2-phenyl-isonicotinamide] |  |  |  |  |  |  |  |  | IC50 ([1]; Homo sapiens, ASPC1, Example 4 numbering, 72 h, >10 = no effect, read-out: IC50 AsPC1 (Table 5)): 1.3 µM; IC50 ([2]; Homo sapiens, PANC-1, Example 4 numbering, 72 h, >10 = no effect, read-out: IC50 Panc-1 (Table 5)): 3.35 µM; antiproliferative activity in words (Example 4) [9]: low micromolar IC50 values; melting point: 285 to 286 °C; IC50 [4, 19]: 1.85 µM; IC50 [7, 20]: 3.78 µM |
| O=C(Nc1ccc2c(c1)S(=O)(=O)C=C2)c1ccncc1 [Compound 21, N-(1,1-Dioxo-1H-1λ^6-benzo[b]thiophen-6-yl)isonicotinamide] |  |  |  |  |  |  |  |  | antiproliferative activity in words (Example 4) [9]: moderate to low antiproliferative activity; melting point: 251 to 252 °C; IC50 [4, 19]: > 10 µM; IC50 [7, 20]: > 10 µM |
| O=C(Nc1ccc([N+](=O)[O-])cc1Cl)c1cc(-c2ccccc2)nc2ccccc12 [HJC-1-17, 2-Phenyl-quinoline-4-carboxylic acid (2-chloro-4-nitro-phenyl)amide] |  |  | 17.4 µM |  | > 10 µM | > 10 µM |  |  | IC50 [1, 15]: > 10 µM; IC50 [2, 16]: > 10 µM; IC50 [4, 17]: > 10 µM; IC50 [7, 18]: 15.9 µM |
| Nc1ccc(NC(=O)c2cc(Cl)ccc2O)c(Cl)c1 [HJC-1-29, N-(4-Amino-2-chloro-phenyl)-5-chloro-2-hydroxy-benzamide] | > 10 µM | > 10 µM | 14.9 µM | > 10 µM | > 10 µM | 16.1 µM | > 10 µM |  |  |
| O=C(Nc1ccc2c(c1)S(=O)(=O)C=C2)c1cc(-c2ccccc2)nc2ccccc12 [HJC-1-23, 2-Phenyl-quinoline-4-carboxylic acid (1,1-dioxo-1H-1λ^6-benzo[b]thiophen-6-yl)-amide] |  |  | 0.24 µM |  | 0.2 µM | 0.22 µM |  | significant inhibition | IC50 [1, 15]: 1.25 µM; IC50 [2, 16]: 0.26 µM; IC50 [4, 17]: 0.29 µM; IC50 [7, 18]: 0.1 µM |
| O=C(Nc1ccc2c(c1)S(=O)(=O)C=C2)c1c2ccccc2nc2ccccc12 [HJC-1-41, Acridine-9-carboxylic acid (1,1-dioxo-1H-1λ^6-benzo[b]thiophen-6-yl)amide] |  |  | 170 µM |  | > 10 µM | > 10 µM |  |  | IC50 [1, 15]: > 10 µM; IC50 [2, 16]: > 10 µM; IC50 [4, 17]: > 10 µM; IC50 [7, 18]: > 10 µM |
| Quinoline-3-carboxylic acid (1,1-dioxo-1H-1λ^6-benzo[b]thiophen-6-yl)amide [Compound 23] |  |  |  |  |  |  |  |  | IC50 ([1]; Example 4 numbering, 72 h, >10 = no effect, read-out: IC50 AsPC1 (Table 5)): 6.97 µM; IC50 ([2]; Example 4 numbering, 72 h, >10 = no effect, read-out: IC50 Panc-1 (Table 5)): 7.92 µM; antiproliferative activity in words (Example 4) [9]: moderate to low antiproliferative activity; IC50 ([4]; Example 4 numbering, 72 h, >10 = no effect, read-out: IC50 MDA-MB-231 (Table 5)): 6.21 µM; IC50 ([7]; Example 4 numbering, 72 h; >10 = no effect; read-out: IC50 MCF-7 (Table 5)): 2.97 µM |
| O=C(Nc1ccc([N+](=O)[O-])cc1Cl)c1cc(Cl)ccc1OC1CCNCC1 [HJC-1-25, 5-Chloro-N-(2-chloro-4-nitro-phenyl)-2-(piperidin-4-yloxy)benzamide] | 2.76 µM | 0.54 µM | 0.18 µM | 0.29 µM | 0.27 µM | 0.28 µM | 0.25 µM | significant inhibition |  |
